Laboratory results taken from EP3036295B1, “OFFSET PRINTING INKS COMPRISING AN ISOSORBIDE FATTY ACID ESTER SOLVENT” (OLEON NV, priority 2013, dated 2015).

Experiments:
[1] = Surface tension, Du Noüy ring method; format: physicochemical
Protocol: The surface tension was measured using the Du Noüy ring method (http://www.kruss.de/en/theory/measurements/surface-tension/ring-method.html. The surface or interfacial tension is measured with the help of an optimally wettable ring suspended from a precision balance. A height-adjustable sample carrier is used to bring the liquid to be measured into contact with the probe. A force acts on the balance as soon as the probe touches the surface. If the length of the probe is known (circumference of ring or length of plate) the force measured can be used to calculate the interfacial or surface tension. A further requirement is that the probe must have a very high surface energy. This is why a platinum-iridium alloy is used for the ring and roughened platinum for the plate.
The liquid is raised until contact with the surface is registered. The sample is then lowered again so that the liquid film produced beneath the ring is stretched. As the film is stretched a maximum force is experienced; this is recorded in the measurement. At the maximum the force vector is exactly parallel to the direction of motion; at this moment the contact angle θ is 0°. In practice the distance is first increased until the area of maximum force has been passed through. The sample vessel containing the liquid is then moved back so that the maximum point is passed through a second time. The maximum force is only determined exactly on this return movement and used to calculate the tension. The calculation is made according to the following equation: σ = (Fmax −FV)/(L⋅cosθ) [formula] (σ =surface or interfacial tension; Fmax=maximum force; FV=weight of volume of liquid lifted; L=wetted length, θ=contact angle) The contact angle θ decreases as the extension increases and has the value 0° at the point of maximum force, this means that the term cos θ has the value 1.

[2] = Kauri butanol value (solvent power), ASTM D1133; format: physicochemical; conditions: Table 2, comparison with conventional solvents
Description: The "Kb value" is a measure of solvent power, and may be determined using the standardized test ASTM D1133. A high Kb value is an indication that the isosorbide ester is more capable in dissolving a wide range of resins of varying nature, and in higher concentrations, as compared to existing solvents used in offset printing inks. This is important as offset inks usually contain besides one or more pigments, approximately 40-65 wt. % of resin binders, for example rosin resins, maleic resins, hydrocarbon resins and alkyd resins, to ensure formation of a polymer film which binds the pigments or dyes together and provides resistance properties. Such resin binders are usually absent in inkjet printing inks. The offset printing ink may further comprise approximately 3 - 6 wt. % of additives, for example waxes, siccative agents and/or inhibitors. Without wanting to be bound by this theory, the applicants believe that this advantageous combination of properties, i.e. high wetting power of the pigments and high Kb value associated with good dissolution properties for the resin component present in the offset ink, must be attributed to the structure of the isosorbide moiety in the ester molecule. […]
In addition the inventors have observed that the Kb value may further be tuned by varying the nature of the carboxylic acid of the isosorbide ester and/or by varying the degree of esterification, in order to provide an ester with good solvent properties or an ester which functions much more as a diluent for the other components present in a formulation. […] Kauri resin is readily soluble in 1-butanol but is not soluble in many other solvents. […] Better solvents, for example toluene, may be added up to larger quantities before the solution becomes cloudy, and thus have a high Kauri butanol value. Weaker solvents like hexane may only be added in smaller quantities and will have a small Kauri butanol value. The Kauri butanol value (Kb value) is usually determined according to ASTM D1133 standardized test. […]

[3] = test system: bacteria, fungi and yeasts; conditions: WO 2013/017257 A1; cited from earlier work

Compound	Surface tension Du Noüy ring method [1] [mN/m]	Kauri butanol ASTM D 1133 [2]	antimicrobial activity [3]
Xylene	29	90	
isosorbide monocaprylate			responsible for the antimicrobial activity observed
O[C@@H]1CO[C@H]2[C@@H]1OC[C@@H]2O [isosorbide, Isosorbide]			isosorbide itself, nor the dicaprylate, exhibit any such activity
isosorbide dicaprylate			isosorbide itself, nor the dicaprylate, exhibit any such activity
C=C(C)[C@H]1CC=C(C)CC1 [D-limonene]	25	67	
Cc1ccccc1 [Toluene]	29	105	
